Data on three compounds can be found in patent US20230241101A1 (priority 2020, published 2023).

For data set [1], the system named is SARS-CoV-2. The experiment in a line: SARS-CoV-2 replication in Vero cells (qRT-PCR). It is filed as cell-based. Particulars: read-out: EC50, inhibition of 50% SARS-CoV-2 replication in Vero cells.
In data set [2] the test system is SARS-CoV-2. Description: GA treatment of COVID-19 golden hamster via intranasal administration. It is filed as in vivo, golden hamster rats. The note with it: nasal spray 25 mg/kg.bw daily, day 4.
Data set [3] concerns inflammatory cytokine levels. The note with it: oral AF 6-9 mg/kg.bw; intraperitoneal GA 5 mg/kg.bw; cited from earlier work.
The subject of a further data set is BALB/c mice. Particulars: cited from earlier work.
The subject of the next data set is SD Rat. Particulars: cited from earlier work.
For data set [4], the system named is SARS-CoV-2. Particulars: Rothan et al, Virology 2020; read-out: EC50, SARS-CoV-2 replication in infected Huh cells; cited from earlier work.
For data set [5], the system named is IL-6, IL-1β, TNF-α expression and NFκB pathway in RAW 264.7 cells. Description: Western blot of cytokine expression and NFκB pathway, RAW 264.7 cells. It is filed as cell-based. The note with it: AF 1.2 µM, GA 40 µM. The protocol: (§1) RAW 264.7 or 16HBE cells were seeded into 6 well plates at a density of 2 × 10^6cells/well. […] The collected cell lysates were centrifuged at 13000 rpm for 10 min, and the supernatants were stored for the subsequent Western Blot analysis. The protein concentrations of the supernatants were determined using a microplate spectrophotometer (SPECTRAMAX M4 of Molecular Devices, USA) at a wavelength of 595 nm. An equal quantity of proteins (50 µg) was separated by running on 10% SDS-PAGE and the separated proteins were transferred to a polyvinylidene fluoride (PVDF) membrane (0.45 µm, Millipore, USA). […]
A general note: Immunoblotting shows a protein as a band on a membrane.

Data set [6] concerns macrophage RAW264.7 cells. Description: Cell viability CCK8, RAW264.7 cells. It counts as cell-based. The note with it: 48 hrs. The protocol:
(§2) To test whether GA and AF are toxic to normal cells, Vero E6, RAW264.7, and 16HBE cell lines were tested. Various doses of AURANOFIN or GA gold cluster were added into cell culture media respectively. After 48 hours of incubation, cell viability was checked by CCK8 (Beyotime, China) following the manufacturer’s instruction, all studies were carried out in triplicate. All cell lines were obtained from ATCC with authentication service.

For data set [7], the system named is IL-6, IL-1β, TNF-α expression and NFκB pathway in 16HBE cells. Description: Western blot of cytokine expression and NFκB pathway, 16HBE cells. It is filed as cell-based, human. Here is the method:
as §1

The subject of a further data set is Vero E6 cell. Description: Cell viability CCK8, Vero E6 cells. It is filed as cell-based. The note with it: 48 hrs. The protocol:
as §2

Data set [8] has as its system human bronchial epithelial cells (16HBE). The experiment in a line: Cell viability CCK8, 16HBE cells. It counts as cell-based. The note with it: 16HBE epithelial cell, 48 hrs. Here is the method:
as §2

In a further data set the target is SARS-CoV-2 M^pro (Severe acute respiratory syndrome coronavirus 2, UniProt P0DTD1). Description: M^pro protease activity FRET assay. It is filed as biochemical. The note with it: no value printed (data not shown or figure only).

Read-outs that look alike come from different tables or passages of the source.

The term EC50 denotes the concentration that produces a half-maximal response. For `CCC(CC)COC(=O)[C@H](C)N[P@](=O)(OC[C@H]1O[C@@](C#N)(c2ccc3c(N)ncnn23)[C@H](O)[C@@H]1O)Oc1ccccc1`, the EC50 in the data set on SARS-CoV-2 [1] (Severe acute respiratory syndrome coronavirus 2, Vero, 48 h) is approximately 650 nM. Moreover, the “average pathological score of lung (INHAND)” value in the data set on SARS-CoV-2 [2] is given as “approx. 2.7”.
As a reminder, the CC50 is the concentration at which the toxic effect on the cells reaches its halfway point. The low end stands for greater toxicity to the cells, the high end for lower toxicity to the cells. As to `CC(=O)OC[C@H]1O[C@@H]([S-])[C@H](OC(C)=O)[C@@H](OC(C)=O)[C@@H]1OC(C)=O.CCP(CC)CC.[Au+]` [AF, AURANOFIN], the inflammatory cytokine levels result in data set [3] was “significant suppression”. For the same compound, the LD50 entry was “LD50, about 33.8 mg/kg.bw” in the data set on BALB/c mice (BALB/c Mice, AF known value) and “LD50, about 25 mg/kg.bw” in the data set on SD Rat (SD Rat, AF known value). Further, the “intraperitoneal LD50” value in the data set on BALB/c mice (mice, known value) is listed as “about 33.8 mg/kg”; with SD Rat (rat, known value), “about 25.5 mg/kg”. Moreover, the EC50 with SARS-CoV-2 [4] is approximately 1400 nM; in the data set on SARS-CoV-2 [1] (MOI 0.015, 48 h.p.i., qRT-PCR), approximately 830 nM. Besides, the “phosphorylation of IKK, IκB, and p65 (NFκB activation)” value in data set [5] (inflammatory macrophage cells) was “inhibit”. Moreover, the “IL-6, IL-1β, and TNF-α expression levels” value in [5] (macrophage cells, TNFα 50 ng/mL, 24 hrs) was “significantly suppressed”; in [7] (human bronchial epithelial cells, TNFα 50 ng/mL, 24 hrs, AF 1.2 µM, GA 40 µM), “significantly suppressed”. Besides, the values for the CC50 (in data set [6]; with Vero E6 cell; in [8]) were approximately 2630 nM, approximately 2270 nM and approximately 630 nM, respectively. The “phosphorylation level of IKK, IκB, p65 and IL-6, IL-1β, TNF-α expression” value in data set [7] (bronchial epithelial cells, AF 0.15 µM, GA 20 µM) is “significantly inhibited”.
For the compound `OC[C@H]1O[C@H]([S-])[C@H](O)[C@@H](O)[C@@H]1O.[Au+]` [aurothioglucose], the “inhibition / suppression of M^pro protease activity (in words)” value against SARS-CoV-2 M^pro was “able to inhibit”.
